Measured values: patent US20070037848A1, “Treatment of neurological conditions” (priority 2003, published 2007)
Entries after “also recorded” stand apart in the source; their conditions may differ.

What was measured:
[1] = test system: patients with probable AD; assay: Phase II clinical trial of clioquinol: cognitive function (ADAS-Cog); type: in vivo, human; conditions: for increase in ADAS-Cog scores: CQ group
Method: On the basis of the pre-clinical data, a Phase II clinical trial was prepared of CQ for the treatment of AD. Inclusion criteria for this Phase II study targeted a region on the ADAS-cog scale (20-45) where patients are moderately demented, still living at home, but anticipating an accelerated deterioration as part of the natural history of AD, over the next 12 months. Because the primary outcome was efficacy, a triple-blind design was chosen.
Criteria for inclusion in the study were:— • (a) informed consent; • (b) a diagnosis of probable AD by NINCDS-ADRDA criteria (McKhann et al., Neurology 34: 939-944, 1984); • (c) AD Assessment Scale-Cognitive (ADAS-Cog) score of 20-45 inclusive (Rosen et al., Am. J. Psychiatry 141: 1356-1364, 1984); • (d) Mini Mental State Examination (MMSE) score of 10-24 inclusive (Folstein et al., J. Psychiatr. Res. 12: 189-198, 1975); • (e) on donepezil hydrochloride 5 mg or 10 mg for at least six months; • (f) relative or carer willing and able to support the trial; • (g) able to complete trial examinations; and • (h) primary sensorial functions intact.
The study was a triple blind, placebo-controlled, randomized design. Thirty-six patients and their carers were recruited to participate, with patients being randomized to receive either CQ or placebo; there were 18 patients in each arm. The duration of the study was 36 weeks. CQ dosage was 125 mg twice daily from weeks 0-12, increased to 250 mg twice daily from weeks 13-24, and finally, 375 mg twice daily from weeks 25-36.
The primary efficacy variable was a change in the baseline score on the AD Assessment Scale (ADAS), which was conducted at baseline and at weeks 4, 12, 24 and 36. This readout was chosen for comparability of treatment effects with current therapeutic agents, such as donepezil, for which efficacy trials also used ADAS as their primary outcome measure (Rogers et al., Neurology 50: 136-145, 1998). Although numerous neuropsychological tests could be considered as secondary measures, it was necessary to avoid fatiguing the subjects at review. Therefore the only other cognitive test performed was the Mini-Mental State Exam (MMSE), which is well characterized and easily implemented. The Clinician's Interview Based Impression of Change (CIBIC), a subjective observational index also used in efficacy trials of acetylcholinesterase inhibitors, was conducted at baseline and at weeks 12, 24 and 36 by an independent researcher who was not part of the study team. Blood samples for measurement of plasma Aβ and plasma zinc and copper were all taken four weekly, by antecubital fossa venepuncture. […]

plasma Aβ42 = assay: Phase II clinical trial: plasma Aβ42; type: in vivo, human
Method: (§1) Screening procedures consisted of a full medical history, full physical, neurological and ophthalmic examination, blood and urine tests and psychometric tests (ADAS-Cog, MMSE) to confirm the patient's eligibility for the study. Nerve conduction tests and visual evoked responses were conducted between the screening and baseline visits to provide a baseline measurement and to exclude patients with undiagnosed peripheral neuropathies or visual disturbances. Blood was collected for ApoE allotyping and determination of baseline plasma levels of CQ, metals and Aβ prior to randomization.
(§2) The primary efficacy variable was a change in the baseline score on the AD Assessment Scale (ADAS), which was conducted at baseline and at weeks 4, 12, 24 and 36. This readout was chosen for comparability of treatment effects with current therapeutic agents, such as donepezil, for which efficacy trials also used ADAS as their primary outcome measure (Rogers et al., Neurology 50: 136-145, 1998). Although numerous neuropsychological tests could be considered as secondary measures, it was necessary to avoid fatiguing the subjects at review. Therefore the only other cognitive test performed was the Mini-Mental State Exam (MMSE), which is well characterized and easily implemented. […]

plasma Aβ40 = assay: Phase II clinical trial: plasma Aβ40; type: in vivo, human
Method: as §1, §2

plasma Zn = assay: Phase II clinical trial: plasma zinc; type: in vivo, human
Method: as §1, §2

plasma Cu = assay: Phase II clinical trial: plasma copper; type: in vivo, human; conditions: administration of CQ vs placebo
Method: as §1, §2

[2] = Safety measures / adverse event reporting in the Phase II trial; type: in vivo, human
Method: (§3) Standard adverse event reporting to a safety monitoring committee, consisting of physicians independent of the study, was conducted to review adverse events at three monthly intervals and on an emergent basis. Following baseline, safety visits were conducted at weeks 2, 4, 8, 12, 16, 20, 24, 26, 28, 32 and 36. The patient and carer were questioned about any changes which might have occurred in the patient's health or medications since the last visit. Standard biochemical, renal and liver function, full blood examination, serum vitamin B12 and folate levels, blood pressure and weight were documented at each visit. A neurological examination was conducted at each visit to assess for peripheral neuropathy and optic neuropathy, and visual evoked responses, nerve conduction studies and a full ophthalmic examination (visual acuity, colour vision, fundal examination and visual field) were conducted at screening, at week 18 and at two weeks after trial completion. An ECG was performed at baseline and at weeks 12 and 24.

[3] = Nerve conduction studies (peripheral nerve latency) in the Phase II trial; type: in vivo, human
Method: as §1, §3

Aβ accumulation = conditions: cited from earlier work

Oc1c(I)cc(Cl)c2cccnc12 [CQ, iodochlorhydroxyquin]
increase in ADAS-Cog scores ([1]; less-severely affected patients): only small increases
increase in ADAS-Cog scores ([1]; more severely-affected patients): negligible increase
effect of treatment on ADAS-Cog ([1]; more-severely affected group (baseline ADAS-Cog≧25), CQ vs placebo): statistically significant; also recorded: significant effect on preventing cognitive decline
primary clinical outcome of efficacy, ADAS-Cog change from baseline ([1]; whole cohort, CQ vs placebo, 36 weeks, on donepezil): trend
change in plasma Aβ42 (plasma Aβ42; CQ-treated group, lowering from week 20 onwards, placebo increased): declined; also recorded: very significant lowering
plasma Aβ42 changes by severity (plasma Aβ42; less-severely affected individuals compared with more-severely affected): more evident
plasma Aβ40 levels (plasma Aβ40; compared with Aβ42 trends, CQ vs placebo): overall similar trends
plasma Aβ40, placebo vs CQ groups (plasma Aβ40; weeks 8, 32 and 36, less-severely affected groups): significant differences
rise of plasma Zn levels (plasma Zn; CQ, Phase II trial): 30%
total plasma Zn (plasma Zn; administration of CQ vs placebo): significant elevation
plasma Cu (plasma Cu): no effect
overall safety and tolerability ([2]; 36 weeks, 250-750 mg/day): safe and well tolerated
non-attributable serious adverse event (hospitalization) ([2]; CQ arm): syncope due to impaired cardiac function
albumin ([2]; CQ arm, group LFT changes): fell significantly
γ-GT, AST, ALT and bilirubin ([2]; CQ arm, group LFT changes): small significant elevation
reduction in haemoglobin ([2]; CQ arm, week 24, p=0.003): 6.88 g/L
reduction in haemoglobin ([2]; CQ arm, week 36, p=0.03): 5.5 g/L
adverse haematological events ([2]; CQ-treated subjects): no adverse haematological events
risk of impairment in visual acuity, colour vision, visual fields or fundoscopic abnormalities ([2]; between the two arms, McNemar's test): no significant differences
overt symptoms or signs of impaired liver function ([2]; changes at week 24 returning to normal by week 36): No subject developed any overt symptoms or signs of impaired liver function
likelihood of changes in liver function tests (LFT) ([2]; patients on CQ vs placebo): more likely
likelihood to develop diarrhoea ([2]; patients on CQ vs placebo): less likely
Abdominal pain, subjects ([2]; treatment arm n = 18): 2
Constipation, subjects ([2]; treatment arm n = 18): 2
Decreased vitamin B12, subjects ([2]; treatment arm n = 18): 0
Diarrhoea, subjects ([2]; treatment arm n = 18): 1
Impaired nerve conduction, subjects ([2]; treatment arm n = 18): 3
Impaired reflexes, subjects ([2]; treatment arm n = 18): 1
Lymphopoenia, subjects ([2]; treatment arm n = 18): 0
Microalbuminurea, subjects ([2]; treatment arm n = 18): 5
Nausea, subjects ([2]; treatment arm n = 18): 2
Numb legs, subjects ([2]; treatment arm n = 18): 2
Postural Dizziness, subjects ([2]; treatment arm n = 18): 7
Postural Hypotension, subjects ([2]; treatment arm n = 18): 12
Postural Tachyardia, subjects ([2]; treatment arm n = 18): 12
Raised bilirubin, subjects ([2]; treatment arm n = 18): 2
Raised γGT, subjects ([2]; treatment arm n = 18): 2
Subjects with +1 postural symptom ([2]; treatment arm n = 18): 13
Subjects with =1 GI symptom ([2]; treatment arm n = 18): 5
Subjects with =1 abnormal LFT ([2]; treatment arm n = 18): 4
Subjects with =1 neurological symptom ([2]; treatment arm n = 18): 6
Mean number discrete Adverse Events Per subject ([2]; treatment arm, 61/18): 3.38
number of attributable events reported ([2]; treatment group, n = 18): 61
Abdominal pain, Relative Risk ([2]; treatment vs placebo): 2.0
Diarrhoea, Relative Risk ([2]; treatment vs placebo): 0.25
Impaired nerve conduction, Relative Risk ([2]; treatment vs placebo): 3.0
Impaired reflexes, Relative Risk ([2]; treatment vs placebo): 0.5
Microalbuminurea, Relative Risk ([2]; treatment vs placebo): 1.00
Postural Dizziness, Relative Risk ([2]; treatment vs placebo): 2.33
Postural Hypotension, Relative Risk ([2]; treatment vs placebo): 1.09
Raised γGT, Relative Risk ([2]; treatment vs placebo): 2.0
Subjects with +1 postural symptom, Relative Risk ([2]; treatment vs placebo): 0.93
Subjects with =1 GI symptom, Relative Risk ([2]; treatment vs placebo): 1.25
Subjects with =1 abnormal LFT, Relative Risk ([2]; treatment vs placebo): 4.0
Subjects with =1 neurological symptom, Relative Risk ([2]; treatment vs placebo): 1.5
Mean number discrete Adverse Events Per subject, Mean diff ([2]; treatment vs placebo, p = 0.327): 0.611
calf latency (baseline)-calf latency (week 20), Mean within-group change ([3]; Pair 1, paired difference, unit assumed): 0.575 ms
calf latency (baseline)-calf latency (week 36), Mean within-group change ([3]; Pair 2, paired difference, in ms (unit assumed)): .7937
wrist 1 latency week 1-wrist 1 latency week 20, Mean within-group change ([3]; Pair 3, paired difference, in ms (unit assumed)): .5824
wrist 1 latency week 1-wrist 1 latency week 36, Mean within-group change ([3]; Pair 4, paired difference, in ms (unit assumed)): .7875
wrist 2 latency week 1-wrist 2 latency week 20, Mean within-group change ([3]; Pair 5, paired difference, in ms (unit assumed)): 1.000E−01
wrist 2 latency week 1-wrist 2 latency week 36, Mean within-group change ([3]; Pair 6, paired difference, in ms (unit assumed)): .2429
between group differences in nerve conduction parameters ([3]; detailed analyses, to week 36): no significant between group differences
risk of displaying abnormal nerve conduction ([3]; subjects on CQ vs placebo): increased risk
effect on Aβ deposits in transgenic mice (Aβ accumulation; 30 mg/kg body weight by gavage (Cherny et al., 2001)): effective
inhibiting Aβ accumulation in transgenic mice (Aβ accumulation; 20-30 mg/kg orally daily, five days per week, two to three months): markedly effective
